Patent US20220125959A1, “PROSTATE-SPECIFIC MEMBRANE ANTIGEN (PSMA) INHIBITORS AS DIAGNOSTIC AND RADIONUCLIDE THERAPEUTIC AGENTS” (FIVE ELEVEN PHARMA INC., priority 2019, published 2022)

How the values were obtained:
[1] = system: PSMA-positive cell line, PIP PC3; experiment: In vitro cell uptake, PIP PC3 cells; format: cell-based
In short: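 Cellular uptake of [^177Lu]-labelled ligands was measured in PIP PC3 cells seeded at 5×10^5 cells/well in 12-well plates and grown 48 h in 1 mL medium. After two PBS washes and addition of 900 μL fresh medium, triplicate wells were incubated at 37° C. Cells were then washed twice, lysed in 1 mL of 0.5 M NaOH, and gamma-counted, with uptake expressed as % ID.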

[2] = system: PSMA-negative cell line, PC3; experiment: In vitro cell uptake, PC3 cells; format: cell-based; conditions: PC3 (do not express PSMA), 60 min
In short: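 Cells grown 48 h, washed, then incubated at 37 °C with [^177Lu]-labelled ligand; nonspecific binding defined with 10 μM 2-PMPA. After washing and lysis in 0.5 M NaOH, activity counted in a gamma counter; uptake expressed as % ID, triplicates.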

[3] = system: PC3-PIP (PSMA positive) and PC-3 tumors (PSMA negative); experiment: Biodistribution of 177Lu labeled compounds 42 and 51 in tumor bearing nude mice; format: in vivo, CD-1 male nude mice
Protocol: For iv injection 150 μL of labeled solution was diluted with saline to 3.75mL. Mice were injected with 150 μL of formulated dose. Injected radioactivity was 100 μCi and PSMA ligand amount was constant at 0.72 nmole/mouse.
Similarly, the tissue distribution of [^177Lu]42 and [^177Lu]51 was evaluated in mice bearing PIP PC3 (PSMA positive) and PC3 (PSMA negative) tumors on the left and right shoulder, respectively, over a period of 24 h (Table 4). […] The tumor specific uptake for [^177Lu]51 was higher than that observed for [^177Lu]42. […] Results of this study lend support for using these dual-targeted ^177Lu labeled agents for treatment of metastatic prostate cancer.

[4] = Stability of injected doses after formulation; format: physicochemical; conditions: at 24 hr after formulation
In short: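 Ligand labeled with ^68Ga (90° C, 10 min) or ^177Lu (95° C, 1 hour) in NaOAc; radiochemical purity checked by radio-HPLC, with stability of formulated doses followed to 2 hr (^68Ga) or 48 hr (^177Lu). Mice received iv 100 μCi, 0.72 nmole ligand/mouse.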

[5] = PIP PC3, 60 min, with PSMA inhibitor (2-PMPA, 2 uM)

O=C([O-])CN1CCN(C(CCC(=O)NCC(=O)NC(Cc2ccc(OCC(=O)NC(Cc3ccccc3)C(=O)NCCCCC(NC(=O)NC(CCC(=O)O)C(=O)O)C(=O)O)cc2)C(=O)O)C(=O)[O-])CCN(CC(=O)[O-])CCN(C(CCC(=O)NCC(=O)NC(P(=O)(O)O)P(=O)(O)O)C(=O)O)CC1.[177Lu+3] (stereo not shown) [[^177Lu]42]
In vitro cell uptake ([1]; PIP PC3, 5 min): 3.3 % ID per 5 × 10^5 cells | In vitro cell uptake ([1]; PIP PC3, 15 min): 5.5 % ID per 5 × 10^5 cells | In vitro cell uptake ([1]; PIP PC3, 30 min): 7.6 % ID per 5 × 10^5 cells | In vitro cell uptake ([1]; PIP PC3, 60 min): 8.6 % ID per 5 × 10^5 cells | In vitro cell uptake [1, 5]: 0.9 % ID per 5 × 10^5 cells | In vitro cell uptake ([1]; PIP PC3, 120 min): 9.8 % ID per 5 × 10^5 cells | In vitro cell uptake [2]: 0.8 % ID per 5 × 10^5 cells | Biodistribution: Blood ([3]; 1 hr): 0.18 ± 0.05 % dose/g | Biodistribution: Bone ([3]; 1 hr): 5.82 ± 1.59 % dose/g | Biodistribution: Heart ([3]; 1 hr): 0.13 ± 0.03 % dose/g | Biodistribution: Kidney ([3]; 1 hr): 27.52 ± 7.47 % dose/g | Biodistribution: Lg Intestine ([3]; 1 hr): 0.11 ± 0.03 % dose/g | Biodistribution: Liver ([3]; 1 hr): 0.12 ± 0.02 % dose/g | Biodistribution: Lung ([3]; 1 hr): 0.38 ± 0.11 % dose/g | Biodistribution: Muscle ([3]; 1 hr): 0.08 ± 0.02 % dose/g | Biodistribution: PC3 tumor ([3]; 1 hr): 0.41 ± 0.10 % dose/g | Biodistribution: PIP PC3 tumor ([3]; 1 hr): 11.29 ± 2.44 % dose/g | Biodistribution: Pancreas ([3]; 1 hr): 0.20 ± 0.09 % dose/g | Biodistribution: Skin ([3]; 1 hr): 0.22 ± 0.05 % dose/g | Biodistribution: Sm Intestine ([3]; 1 hr): 0.24 ± 0.15 % dose/g | Biodistribution: Spleen ([3]; 1 hr): 0.53 ± 0.17 % dose/g | Biodistribution: Stomach ([3]; 1 hr): 0.17 ± 0.07 % dose/g | Biodistribution: Blood ([3]; 4 hr): 0.02 ± 0.01 % dose/g | Biodistribution: Bone ([3]; 4 hr): 5.62 ± 1.18 % dose/g | Biodistribution: Heart ([3]; 4 hr): 0.06 ± 0.02 % dose/g | Biodistribution: Kidney ([3]; 4 hr): 11.81 ± 5.81 % dose/g | Biodistribution: Lg Intestine ([3]; 4 hr): 1.03 ± 1.01 % dose/g | Biodistribution: Liver ([3]; 4 hr): 0.08 ± 0.02 % dose/g | Biodistribution: Lung ([3]; 4 hr): 0.13 ± 0.04 % dose/g | Biodistribution: Muscle ([3]; 4 hr): 0.05 ± 0.04 % dose/g | Biodistribution: PC3 tumor ([3]; 4 hr): 0.28 ± 0.11 % dose/g | Biodistribution: PIP PC3 tumor ([3]; 4 hr): 7.62 ± 1.60 % dose/g | Biodistribution: Pancreas ([3]; 4 hr): 0.05 ± 0.02 % dose/g | Biodistribution: Skin ([3]; 4 hr): 0.10 ± 0.03 % dose/g | Biodistribution: Sm Intestine ([3]; 4 hr): 0.94 ± 1.12 % dose/g | Biodistribution: Spleen ([3]; 4 hr): 0.18 ± 0.06 % dose/g | Biodistribution: Stomach ([3]; 4 hr): 0.49 ± 0.60 % dose/g | Biodistribution: Blood ([3]; 24 hr): 0.00 ± 0.00 % dose/g | Biodistribution: Bone ([3]; 24 hr): 4.55 ± 0.26 % dose/g | Biodistribution: Heart ([3]; 24 hr): 0.03 ± 0.01 % dose/g | Biodistribution: Kidney ([3]; 24 hr): 2.62 ± 0.19 % dose/g | Biodistribution: Lg Intestine ([3]; 24 hr): 0.37 ± 0.20 % dose/g | Biodistribution: Liver ([3]; 24 hr): 0.06 ± 0.00 % dose/g | Biodistribution: Lung ([3]; 24 hr): 0.04 ± 0.01 % dose/g | Biodistribution: Muscle ([3]; 24 hr): 0.03 ± 0.02 % dose/g | Biodistribution: PC3 tumor ([3]; 24 hr): 0.11 ± 0.04 % dose/g | Biodistribution: PIP PC3 tumor ([3]; 24 hr): 4.72 ± 1.68 % dose/g | Biodistribution: Pancreas ([3]; 24 hr): 0.01 ± 0.00 % dose/g | Biodistribution: Skin ([3]; 24 hr): 0.05 ± 0.01 % dose/g | Biodistribution: Sm Intestine ([3]; 24 hr): 0.06 ± 0.05 % dose/g | Biodistribution: Spleen ([3]; 24 hr): 0.04 ± 0.01 % dose/g | Biodistribution: Stomach ([3]; 24 hr): 0.14 ± 0.10 % dose/g | PC3 (PSMA negative) tumor uptake ([3]; mouse, in vivo): very low uptake | PIP PC3 (PSMA positive) tumor uptake ([3]; mouse, in vivo): excellent | Uptake in bone ([3]; mouse, in vivo): high specific uptake in bone | Stability of injected doses [4]: stable

O=C(O)CC[C@H](NC(=O)N[C@@H](CCCCNC(=O)[C@H](Cc1ccccc1)NC(=O)COc1ccc(C[C@H](NC(=O)CNC(=O)CCC(C(=O)O)N2CCN(CC(=O)O)CCN(CC(=O)O)CCN(CC(=O)O)CC2)C(=O)NCC(=O)NC(P(=O)(O)O)P(=O)(O)O)cc1)C(=O)O)C(=O)O.[177Lu] (stereo partly shown) [[^177Lu]51]
Uptakes compared with reference ligand [177Lu]PSMA-617 ([1]; PIP PC3): much higher uptakes | In vitro cell uptake ([1]; PIP PC3, 5 min): 4.4 % ID per 5 × 10^5 cells | In vitro cell uptake ([1]; PIP PC3, 15 min): 8.4 % ID per 5 × 10^5 cells | In vitro cell uptake ([1]; PIP PC3, 30 min): 13.4 % ID per 5 × 10^5 cells | In vitro cell uptake ([1]; PIP PC3, 60 min): 17.4 % ID per 5 × 10^5 cells | In vitro cell uptake [1, 5]: 1.1 % ID per 5 × 10^5 cells | In vitro cell uptake ([1]; PIP PC3, 120 min): 19.3 % ID per 5 × 10^5 cells | In vitro cell uptake [2]: 0.7 % ID per 5 × 10^5 cells | Biodistribution: Blood ([3]; 1 hr): 0.18 ± 0.04 % dose/g | Biodistribution: Bone ([3]; 1 hr): 6.52 ± 0.34 % dose/g | Biodistribution: Heart ([3]; 1 hr): 0.20 ± 0.06 % dose/g | Biodistribution: Kidney ([3]; 1 hr): 90.59 ± 18.47 % dose/g | Biodistribution: Lg Intestine ([3]; 1 hr): 0.10 ± 0.04 % dose/g | Biodistribution: Liver ([3]; 1 hr): 0.23 ± 0.03 % dose/g | Biodistribution: Lung ([3]; 1 hr): 0.62 ± 0.09 % dose/g | Biodistribution: Muscle ([3]; 1 hr): 0.11 ± 0.03 % dose/g | Biodistribution: PC3 tumor ([3]; 1 hr): 0.53 ± 0.12 % dose/g | Biodistribution: PIP PC3 tumor ([3]; 1 hr): 14.70 ± 1.29 % dose/g | Biodistribution: Pancreas ([3]; 1 hr): 0.37 ± 0.11 % dose/g | Biodistribution: Skin ([3]; 1 hr): 0.35 ± 0.05 % dose/g | Biodistribution: Sm Intestine ([3]; 1 hr): 0.16 ± 0.03 % dose/g | Biodistribution: Spleen ([3]; 1 hr): 1.33 ± 0.41 % dose/g | Biodistribution: Stomach ([3]; 1 hr): 0.11 ± 0.03 % dose/g | Biodistribution: Blood ([3]; 4 hr): 0.03 ± 0.01 % dose/g | Biodistribution: Bone ([3]; 4 hr): 6.74 ± 0.71 % dose/g | Biodistribution: Heart ([3]; 4 hr): 0.05 ± 0.00 % dose/g | Biodistribution: Kidney ([3]; 4 hr): 35.24 ± 5.28 % dose/g | Biodistribution: Lg Intestine ([3]; 4 hr): 0.22 ± 0.15 % dose/g | Biodistribution: Liver ([3]; 4 hr): 0.16 ± 0.00 % dose/g | Biodistribution: Lung ([3]; 4 hr): 0.20 ± 0.06 % dose/g | Biodistribution: Muscle ([3]; 4 hr): 0.03 ± 0.00 % dose/g | Biodistribution: PC3 tumor ([3]; 4 hr): 0.20 ± 0.03 % dose/g | Biodistribution: PIP PC3 tumor ([3]; 4 hr): 15.12 ± 1.36 % dose/g | Biodistribution: Pancreas ([3]; 4 hr): 0.11 ± 0.03 % dose/g | Biodistribution: Skin ([3]; 4 hr): 0.11 ± 0.01 % dose/g | Biodistribution: Sm Intestine ([3]; 4 hr): 0.21 ± 0.29 % dose/g | Biodistribution: Spleen ([3]; 4 hr): 0.39 ± 0.12 % dose/g | Biodistribution: Stomach ([3]; 4 hr): 0.26 ± 0.23 % dose/g | Biodistribution: Blood ([3]; 24 hr): 0.00 ± 0.00 % dose/g | Biodistribution: Bone ([3]; 24 hr): 5.51 ± 0.66 % dose/g | Biodistribution: Heart ([3]; 24 hr): 0.03 ± 0.01 % dose/g | Biodistribution: Kidney ([3]; 24 hr): 4.18 ± 1.74 % dose/g | Biodistribution: Lg Intestine ([3]; 24 hr): 0.49 ± 0.34 % dose/g | Biodistribution: Liver ([3]; 24 hr): 0.14 ± 0.02 % dose/g | Biodistribution: Lung ([3]; 24 hr): 0.10 ± 0.04 % dose/g | Biodistribution: Muscle ([3]; 24 hr): 0.02 ± 0.00 % dose/g | Biodistribution: PC3 tumor ([3]; 24 hr): 0.16 ± 0.02 % dose/g | Biodistribution: PIP PC3 tumor ([3]; 24 hr): 10.75 ± 2.52 % dose/g | Biodistribution: Pancreas ([3]; 24 hr): 0.03 ± 0.00 % dose/g | Biodistribution: Skin ([3]; 24 hr): 0.07 ± 0.02 % dose/g | Biodistribution: Sm Intestine ([3]; 24 hr): 0.30 ± 0.33 % dose/g | Biodistribution: Spleen ([3]; 24 hr): 0.15 ± 0.04 % dose/g | Biodistribution: Stomach ([3]; 24 hr): 0.40 ± 0.56 % dose/g | Bone uptake compared with [177Lu]42 ([3]; mouse, in vivo): consistently higher | PC3 (PSMA negative) tumor uptake ([3]; mouse, in vivo): very low uptake | PIP PC3 (PSMA positive) tumor uptake ([3]; mouse, in vivo): excellent | Tumor specific uptake compared with [177Lu]42 ([3]; mouse, in vivo): higher | Uptake in bone ([3]; mouse, in vivo): high specific uptake in bone | Stability of injected doses [4]: stable
